According to patent US12084437B2, “Halo-substituted piperidines as orexin receptor modulators” (AstraZeneca AB, priority 2016, dated 2024):

Legend:
OX1 = biological target: T1, OX1 (Homo sapiens, UniProt O43613); experiment: Orexin receptor cell-based functional assay, [Ca2+]i by FLIPR, CHO-OX1 cells; details: FLIPR calcium, antagonism of EC90 of [OX], read-out: OXI, IC50
T1 construct: expressed in transfected cells; host or cells: CHO (CHO-OX1)
T1 sequence (O43613 1-425): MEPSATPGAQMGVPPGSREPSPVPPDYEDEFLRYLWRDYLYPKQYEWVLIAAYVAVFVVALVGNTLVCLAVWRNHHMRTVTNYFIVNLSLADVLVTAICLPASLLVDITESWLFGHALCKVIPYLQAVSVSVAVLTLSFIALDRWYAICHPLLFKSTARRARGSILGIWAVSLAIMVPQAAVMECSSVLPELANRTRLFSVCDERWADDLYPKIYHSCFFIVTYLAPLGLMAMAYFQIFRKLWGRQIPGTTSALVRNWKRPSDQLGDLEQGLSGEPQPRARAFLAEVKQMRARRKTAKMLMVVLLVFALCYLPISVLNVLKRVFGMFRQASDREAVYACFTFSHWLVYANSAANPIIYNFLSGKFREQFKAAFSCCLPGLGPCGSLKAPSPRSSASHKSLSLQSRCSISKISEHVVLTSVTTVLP
Method: (§1) Measurement of [Ca^2+]i using a FLIPR: CHO-OX1 or CHO-OX2 cells were seeded into black-walled clear-base 384-well plates (Corning, catalog #3712) at a density of 20,000 cells per well in F12-K medium supplemented with 10% FBS and then incubated in a 5% CO2, 37° C. incubator overnight to reach 90% confluency. The cells were incubated with equal volume of calcium6 loading buffer (Molecular Devices, Inc.) containing 2.5 mM probenecid at 37° C. for 2 h, followed by test compounds (dose-range 0.1 nM-10 μM) for another 30 min. The plates were then placed into a FLIPR (Molecular Devices, Inc.) to monitor fluorescence (λ excitation 488 nm, λ emission 540 nm) before and after the addition of EC90 of [OX].

OX2 = biological target: T2, OX2 (Homo sapiens, UniProt O43614); experiment: Orexin receptor cell-based functional assay, [Ca2+]i by FLIPR, CHO-OX2 cells; details: FLIPR calcium, antagonism of EC90 of [OX]
T2 construct: expressed in transfected cells; host or cells: CHO (CHO-OX2)
T2 sequence (O43614 1-444): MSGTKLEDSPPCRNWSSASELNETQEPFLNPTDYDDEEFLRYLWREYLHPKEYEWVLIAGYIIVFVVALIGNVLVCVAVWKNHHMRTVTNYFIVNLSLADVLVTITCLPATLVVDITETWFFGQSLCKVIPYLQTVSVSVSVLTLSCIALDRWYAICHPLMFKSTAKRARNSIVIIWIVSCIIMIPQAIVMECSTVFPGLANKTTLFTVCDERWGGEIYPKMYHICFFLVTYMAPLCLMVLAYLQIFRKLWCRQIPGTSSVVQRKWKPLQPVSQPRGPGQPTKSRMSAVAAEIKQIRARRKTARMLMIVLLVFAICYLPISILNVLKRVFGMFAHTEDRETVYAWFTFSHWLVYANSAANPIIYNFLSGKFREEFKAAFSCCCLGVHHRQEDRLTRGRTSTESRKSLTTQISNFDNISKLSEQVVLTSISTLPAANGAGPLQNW
Method: as §1, with “[OX]. Results for exemplary compounds of Formulae (I), (Ia), (Ib), (II), (IIa), (III), (IIIa), (IV), (IVa), (V), or (Va) are shown in Table 3.” for “[OX].”

Row | SMILES | IC50 (OX1) | IC50 (OX2)
1 | CCc1cnc(NC[C@@H]2[C@H](C)CC(F)(F)CN2C(=O)c2nn(C)cc2-c2ccc(F)cn2)nc1 [Compound 41] | > 5 µM | > 5 µM
2 | Cc1ccc(-c2cn(C)nc2C(=O)N2CC(F)(F)C[C@@H](C)[C@H]2CNc2ncc(C(F)(F)F)cn2)nc1 [Compound 44] | 0.01 µM | > 5 µM
3 | COc1ccc(-c2cn(C)nc2C(=O)N2CC(F)(F)C[C@@H](C)[C@H]2CNc2ncc(C(F)(F)F)cn2)nc1 [Compound 45] | 0.047 µM | > 5 µM
4 | Cc1cccc(-c2cn(C)nc2C(=O)N2CC(F)(F)C[C@@H](C)[C@H]2CNc2ncc(C(F)(F)F)cn2)n1 [Compound 46] | 0.007 µM | > 5 µM
5 | Cc1nc(-c2ccccc2)c(C(=O)N2CC(F)(F)C[C@@H](C)[C@H]2CNc2ncc(C(F)(F)F)cn2)s1 [Compound 48] | 0.607 µM | > 5 µM
6 | Cc1nc(C(=O)N2CC(F)(F)C[C@@H](C)[C@H]2CNc2ncc(C(F)(F)F)cn2)c(-c2ncccn2)s1 [Compound 49] | 0.006 µM | > 5 µM
7 | Cc1nc(C(=O)N2CC(F)(F)C[C@@H](C)[C@H]2CNc2ncc(Cl)cn2)c(-c2ncccn2)s1 [Compound 50] | 0.02 µM | > 5 µM
8 | Cc1ccc(-c2ccccc2)c(C(=O)N2CC(F)(F)C[C@@H](C)[C@H]2CNc2ncc(Cl)cn2)n1 [Compound 52] | 0.009 µM | > 5 µM
9 | C[C@@H]1CC(F)(F)CN(C(=O)c2cc(Cl)ccc2-c2ncccn2)[C@@H]1CNc1ncc(C(F)(F)F)cn1 [Compound 56, (5-chloro-2-(pyrimidin-2-yl)phenyl)((2S,3R)-5,5-difluoro-3-methyl-2-(((5-(trifluoromethyl)pyrimidin-2-yl)amino)methyl)piperidin-1-yl)methanone] | 0.007 µM | > 5 µM
10 | Cc1ccc(-c2sc(C)nc2C(=O)N2CC(F)(F)C[C@@H](C)[C@H]2CNc2ncc(C(F)(F)F)cn2)cc1 [Compound 64] | 0.004 µM | > 5 µM

Continued, values first:

Row | IC50 (OX1) | IC50 (OX2) | SMILES
11 | 0.004 µM | 4.7 µM | C[C@@H]1CC(F)(F)CN(C(=O)c2nn(C)cc2-c2ccc(Cl)cc2)[C@@H]1CNc1ncc(C(F)(F)F)cn1 [Compound 33]
12 | 0.019 µM | > 5 µM | C[C@@H]1CC(F)(F)CN(C(=O)c2nn(C)cc2-c2ccccn2)[C@@H]1CNc1ncc(C(F)(F)F)cn1 [Compound 36]
13 | 1.16 µM | > 5 µM | Cc1cccnc1-c1cn(C)nc1C(=O)N1CC(F)(F)C[C@@H](C)[C@H]1CNc1ncc(C(F)(F)F)cn1 [Compound 39]
14 | > 1 µM | > 5 µM | C[C@@H]1CC(F)(F)CN(C(=O)c2nn(C)cc2-c2ccc(F)cn2)[C@@H]1CNc1ncc(C(F)(F)F)cn1 [Compound 42]
15 | 0.004 µM | > 5 µM | Cc1ccc(-c2ccccc2)c(C(=O)N2CC(F)(F)C[C@@H](C)[C@H]2CNc2ncc(C(F)(F)F)cn2)n1 [Compound 51]
16 | 0.029 µM | > 5 µM | C[C@@H]1CC(F)(F)CN(C(=O)c2cc(C#N)ccc2-c2ccc(F)cc2)[C@@H]1CNc1ncc(Cl)cn1 [Compound 53]
17 | 0.043 µM | > 5 µM | C[C@@H]1CC(F)(F)CN(C(=O)c2cc(F)ccc2-c2ncccn2)[C@@H]1CNc1ncc(C(F)(F)F)cn1 [Compound 54]
18 | 0.03 µM | > 5 µM | Cc1ccc(-c2ncccn2)c(C(=O)N2CC(F)(F)C[C@@H](C)[C@H]2CNc2ncc(C(F)(F)F)cn2)c1 [Compound 55, ((2S,3R)-5,5-difluoro-3-methyl-2-(((5-(trifluoromethyl)pyrimidin-2-yl)amino)methyl)piperidin-1-yl)(5-methyl-2-(pyrimidin-2-yl)phenyl)methanone]
19 | 0.024 µM | > 5 µM | C[C@@H]1CC(F)(F)CN(C(=O)c2cc(Cl)ccc2-c2ncccn2)[C@@H]1CNc1ncc(Cl)cn1 [Compound 57, (5-chloro-2-(pyrimidin-2-yl)phenyl)((2S,3R)-2-(((5-chloropyrimidin-2-yl)amino)methyl)-5,5-difluoro-3-methylpiperidin-1-yl)methanone]
